Data reported in BindingDB's records for patent US20240368161 (Cgenetech (Suzhou, China), 2024).

Assays:
[1] = biological target: Tyrosine-protein kinase JAK1 (Homo sapiens, UniProt P23458); assay: JAK1 Kinase Inhibitory Activity Determination
[2] = biological target: Tyrosine-protein kinase JAK2 (Homo sapiens, UniProt O60674); assay: JAK2 Kinase Inhibitory Activity Determination
[3] = biological target: T1, Tyrosine-protein kinase JAK3 (Homo sapiens, UniProt P52333); assay: JAK3 Kinase Inhibitory Activity Determination
T1 sequence (P52333 whole entry): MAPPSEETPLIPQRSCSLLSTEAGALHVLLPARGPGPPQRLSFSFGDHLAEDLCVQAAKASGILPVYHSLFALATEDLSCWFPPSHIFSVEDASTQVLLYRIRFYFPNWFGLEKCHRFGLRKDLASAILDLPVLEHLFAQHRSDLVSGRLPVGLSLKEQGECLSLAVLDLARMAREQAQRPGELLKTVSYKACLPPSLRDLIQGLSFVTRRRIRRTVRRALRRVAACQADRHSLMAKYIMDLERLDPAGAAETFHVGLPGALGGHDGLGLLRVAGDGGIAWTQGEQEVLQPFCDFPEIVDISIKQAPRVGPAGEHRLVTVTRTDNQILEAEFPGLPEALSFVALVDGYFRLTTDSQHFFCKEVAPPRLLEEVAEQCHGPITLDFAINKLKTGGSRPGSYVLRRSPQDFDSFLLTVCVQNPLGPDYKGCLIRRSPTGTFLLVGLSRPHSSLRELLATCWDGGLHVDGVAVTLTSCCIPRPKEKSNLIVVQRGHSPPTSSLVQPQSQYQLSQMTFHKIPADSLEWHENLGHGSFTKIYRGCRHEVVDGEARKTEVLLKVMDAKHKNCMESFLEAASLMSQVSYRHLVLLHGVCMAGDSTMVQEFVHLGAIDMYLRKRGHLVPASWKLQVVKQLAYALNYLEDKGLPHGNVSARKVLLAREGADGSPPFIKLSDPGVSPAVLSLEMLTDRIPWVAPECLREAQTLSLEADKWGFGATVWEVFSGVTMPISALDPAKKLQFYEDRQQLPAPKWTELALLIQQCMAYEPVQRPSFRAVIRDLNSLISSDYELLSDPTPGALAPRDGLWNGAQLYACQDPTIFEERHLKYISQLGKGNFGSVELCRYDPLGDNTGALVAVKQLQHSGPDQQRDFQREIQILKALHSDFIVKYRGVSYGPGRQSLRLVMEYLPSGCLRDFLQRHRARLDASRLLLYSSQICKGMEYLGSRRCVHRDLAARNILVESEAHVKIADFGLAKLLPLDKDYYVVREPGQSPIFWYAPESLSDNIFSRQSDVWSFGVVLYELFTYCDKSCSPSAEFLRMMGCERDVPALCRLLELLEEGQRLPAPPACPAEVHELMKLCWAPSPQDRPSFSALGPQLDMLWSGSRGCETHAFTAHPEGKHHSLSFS
Experimental: At the end of incubation, HTRF665/620 signals were read on a multifunctional microplate reader.

Tyrosine-protein kinase JAK1, sequence (P23458 whole entry): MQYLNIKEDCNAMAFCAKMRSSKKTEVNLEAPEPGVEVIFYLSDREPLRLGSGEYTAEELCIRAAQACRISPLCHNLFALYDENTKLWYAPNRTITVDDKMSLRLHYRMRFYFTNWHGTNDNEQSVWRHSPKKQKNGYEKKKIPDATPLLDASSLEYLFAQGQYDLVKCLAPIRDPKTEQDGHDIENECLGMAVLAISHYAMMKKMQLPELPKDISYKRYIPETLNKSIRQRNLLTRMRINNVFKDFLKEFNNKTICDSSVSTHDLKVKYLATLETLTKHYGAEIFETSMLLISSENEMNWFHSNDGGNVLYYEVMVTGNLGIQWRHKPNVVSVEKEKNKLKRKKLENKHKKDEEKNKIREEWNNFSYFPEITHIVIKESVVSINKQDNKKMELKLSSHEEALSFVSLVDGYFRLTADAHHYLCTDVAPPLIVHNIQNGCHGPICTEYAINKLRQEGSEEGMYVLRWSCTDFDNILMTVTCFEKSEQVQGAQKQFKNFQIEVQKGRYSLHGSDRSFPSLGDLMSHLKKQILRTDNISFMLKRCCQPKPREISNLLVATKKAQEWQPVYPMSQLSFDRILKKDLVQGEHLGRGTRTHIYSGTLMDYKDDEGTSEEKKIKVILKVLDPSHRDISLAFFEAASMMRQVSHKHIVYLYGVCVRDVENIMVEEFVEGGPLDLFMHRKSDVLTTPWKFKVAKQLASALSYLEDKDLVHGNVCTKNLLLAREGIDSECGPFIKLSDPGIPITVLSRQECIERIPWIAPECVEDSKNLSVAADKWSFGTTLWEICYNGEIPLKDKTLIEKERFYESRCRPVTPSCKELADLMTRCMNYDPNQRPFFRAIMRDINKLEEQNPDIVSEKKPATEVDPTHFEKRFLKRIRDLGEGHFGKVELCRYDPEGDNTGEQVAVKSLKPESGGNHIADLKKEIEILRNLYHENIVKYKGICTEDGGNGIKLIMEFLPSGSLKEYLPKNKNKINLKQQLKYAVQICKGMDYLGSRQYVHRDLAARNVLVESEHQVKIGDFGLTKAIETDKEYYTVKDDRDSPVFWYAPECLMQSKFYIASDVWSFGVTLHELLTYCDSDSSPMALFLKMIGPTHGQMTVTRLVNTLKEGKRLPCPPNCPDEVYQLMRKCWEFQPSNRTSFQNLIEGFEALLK
Tyrosine-protein kinase JAK2, sequence (O60674 whole entry): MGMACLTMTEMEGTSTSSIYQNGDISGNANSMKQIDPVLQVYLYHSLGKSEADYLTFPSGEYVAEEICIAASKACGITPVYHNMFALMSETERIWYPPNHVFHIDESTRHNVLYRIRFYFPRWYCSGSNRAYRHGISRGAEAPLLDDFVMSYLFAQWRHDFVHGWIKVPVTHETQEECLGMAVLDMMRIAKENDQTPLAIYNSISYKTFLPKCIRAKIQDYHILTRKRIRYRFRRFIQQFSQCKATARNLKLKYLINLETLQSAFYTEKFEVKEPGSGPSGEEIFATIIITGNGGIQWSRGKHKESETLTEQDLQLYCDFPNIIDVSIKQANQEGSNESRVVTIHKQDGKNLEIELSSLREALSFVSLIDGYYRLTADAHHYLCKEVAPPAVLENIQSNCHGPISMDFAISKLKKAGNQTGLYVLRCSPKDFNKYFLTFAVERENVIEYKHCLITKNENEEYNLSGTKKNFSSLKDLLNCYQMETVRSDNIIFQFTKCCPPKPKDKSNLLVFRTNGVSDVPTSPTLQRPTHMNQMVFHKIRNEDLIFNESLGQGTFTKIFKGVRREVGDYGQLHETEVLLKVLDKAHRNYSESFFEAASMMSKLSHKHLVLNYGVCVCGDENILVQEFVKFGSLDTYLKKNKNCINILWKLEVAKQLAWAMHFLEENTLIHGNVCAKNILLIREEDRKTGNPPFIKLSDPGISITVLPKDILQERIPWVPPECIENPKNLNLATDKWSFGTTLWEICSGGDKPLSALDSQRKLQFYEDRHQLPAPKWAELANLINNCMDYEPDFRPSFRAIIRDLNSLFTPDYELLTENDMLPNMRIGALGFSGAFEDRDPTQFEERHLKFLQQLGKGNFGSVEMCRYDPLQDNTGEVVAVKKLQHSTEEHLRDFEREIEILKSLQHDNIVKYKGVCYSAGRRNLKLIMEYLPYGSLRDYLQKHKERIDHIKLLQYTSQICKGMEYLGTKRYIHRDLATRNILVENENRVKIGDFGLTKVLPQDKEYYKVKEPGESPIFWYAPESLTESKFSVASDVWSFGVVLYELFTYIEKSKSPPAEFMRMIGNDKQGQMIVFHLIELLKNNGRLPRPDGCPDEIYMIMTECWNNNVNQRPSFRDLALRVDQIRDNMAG

Structure (SMILES)	IC50 [1]	IC50 [2]	IC50 [3]
CS(=O)(=O)C1CCN(Cc2ccc(-c3cccc4nc(NC(=O)C5CC5)cn34)cc2)CC1 [US20240368161, Compound 16]	74.4 nM	127 nM	3120 nM
CS(=O)(=O)C1CN(Cc2ccc(-c3cccc4nc(NC(=O)C5CC5)cn34)cc2)C1 [US20240368161, Compound 15]	137 nM	232 nM	3170 nM
O=C(Nc1cn2c(-c3ccc(OC4CCS(=O)(=O)CC4)cc3)cccc2n1)C1CC1 [US20240368161, Compound 17]	125 nM	72.7 nM	1460 nM

Now from value to molecule:

IC50 [1]	IC50 [2]	IC50 [3]	Structure (SMILES)
262 nM	176 nM	5760 nM	CS(=O)(=O)C1CCN(Cc2ccc(-c3cccc4nc(NC(=O)C5CC5)cn34)c(F)c2)CC1 [US20240368161, Compound 20]
611 nM	229 nM	6900 nM	CCCS(=O)(=O)C1CCN(Cc2ccc(-c3cccc4nc(NC(=O)C5CC5)cn34)cc2)CC1 [US20240368161, Compound 31]
